Test results from publication PMC10472371, “Discovery of E2730, a novel selective uncompetitive GAT1 inhibitor, as a candidate for anti‐seizure medication” (Epilepsia Open, 2023).
“Also recorded” adds a separate entry of the source.

Columns and labels:
[1] = target: T1, hGABAAR (containing α1, β3, and γ2 subunits) (Homo sapiens, UniProt P14867+P18507+P28472); assay: GABA-induced current in hGABAAR-expressing HEK-293 cells, whole-cell patch-clamp; type: cell-based; conditions: up to 100 μM
T1 construct: expressed in transfected cells; host or cells: HEK-293
T1 sequence (P14867 28-456): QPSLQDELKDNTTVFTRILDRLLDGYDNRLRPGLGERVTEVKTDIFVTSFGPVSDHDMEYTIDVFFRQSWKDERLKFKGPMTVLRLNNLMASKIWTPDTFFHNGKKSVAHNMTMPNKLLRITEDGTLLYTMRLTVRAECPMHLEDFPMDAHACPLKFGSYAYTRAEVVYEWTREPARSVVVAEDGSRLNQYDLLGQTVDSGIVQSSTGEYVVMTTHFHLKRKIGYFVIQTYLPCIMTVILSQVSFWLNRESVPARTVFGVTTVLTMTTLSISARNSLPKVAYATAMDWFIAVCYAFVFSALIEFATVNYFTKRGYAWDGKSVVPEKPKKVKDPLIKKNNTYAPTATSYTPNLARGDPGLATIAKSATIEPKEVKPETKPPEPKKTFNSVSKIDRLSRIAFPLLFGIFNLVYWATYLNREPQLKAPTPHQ
T1 sequence (P28472 26-473): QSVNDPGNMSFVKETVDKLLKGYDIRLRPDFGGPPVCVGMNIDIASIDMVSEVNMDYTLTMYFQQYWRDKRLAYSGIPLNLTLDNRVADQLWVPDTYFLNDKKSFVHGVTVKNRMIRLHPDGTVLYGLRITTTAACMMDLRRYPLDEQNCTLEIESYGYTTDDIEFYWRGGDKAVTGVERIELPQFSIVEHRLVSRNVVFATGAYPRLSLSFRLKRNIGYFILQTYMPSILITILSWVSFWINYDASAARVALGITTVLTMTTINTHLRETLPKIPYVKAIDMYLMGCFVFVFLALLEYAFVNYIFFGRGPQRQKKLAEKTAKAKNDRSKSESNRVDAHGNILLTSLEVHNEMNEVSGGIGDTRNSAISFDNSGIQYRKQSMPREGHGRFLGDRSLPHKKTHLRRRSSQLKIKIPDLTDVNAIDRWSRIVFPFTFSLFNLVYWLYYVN
T1 sequence (P18507 40-475): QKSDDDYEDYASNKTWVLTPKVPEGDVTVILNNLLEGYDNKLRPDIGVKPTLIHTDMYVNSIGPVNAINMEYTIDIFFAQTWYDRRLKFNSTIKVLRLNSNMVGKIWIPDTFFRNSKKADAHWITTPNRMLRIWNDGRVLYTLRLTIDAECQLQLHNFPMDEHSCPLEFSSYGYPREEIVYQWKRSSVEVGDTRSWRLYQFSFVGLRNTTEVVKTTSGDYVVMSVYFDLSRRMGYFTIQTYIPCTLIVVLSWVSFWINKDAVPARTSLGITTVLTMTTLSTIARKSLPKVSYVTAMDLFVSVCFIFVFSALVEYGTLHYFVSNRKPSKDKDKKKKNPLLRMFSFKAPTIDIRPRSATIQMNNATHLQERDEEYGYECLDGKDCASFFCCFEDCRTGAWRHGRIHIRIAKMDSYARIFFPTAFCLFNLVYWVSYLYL
Experimental: Data represent the mean ± SEM of 3 independent experiments. Control response is GABA (13 μM)-induced current amplitude. […] Cells in voltage clamp were maintained at -80 mV throughout the experiments following the voltage protocol.

amygdala kindling rats = assay: Amygdala kindling in rats; type: in vivo, rat
Source text: A tripolar electrode was implanted into the basolateral amygdala of Wistar‐Kyoto rats (male, 7 weeks old; Charles River Laboratories Japan, Japan). After at least 5 days of recovery, the amygdala was stimulated using an electronic stimulator at currents starting at 0.04 mA (50 Hz, 1 millisecond monophasic square‐wave pulses, 1‐second duration each) then increasing by 25% to a 30‐second duration until the after‐discharge threshold (ADT) was attained. ADT was defined as the current at which abnormal electroencephalogram and at least Racine's stage‐1 seizure behavior were observed. In the Racine's stage, seizure severity was classified as: 1, mouth and facial movements; 2, head nodding; 3, forelimb clonus; 4, rearing; 5, rearing and falling. From the next day onwards, electrical stimulation at the previously determined ADT was performed once daily in each rat. The rats showing ≥3 consecutive Racine stage‐5 seizures were deemed epileptic and used for drug evaluation. The pre‐ADT (i.e. baseline) seizure threshold of each rat was established prior to drug administration. After >1 hour following the determination of pre‐ADT seizure threshold, E2730 (5–50 mg/kg), levetiracetam (25 mg/kg), or vehicle was orally administered to the rats. One hour after the administration, the post‐ADT seizure threshold of each rat was ascertained, and the ratios of post‐ADT to pre‐ADT readings were analyzed.

[2] = target: T2, rat brain synaptosomal membranes (Rattus norvegicus, UniProt P23978); assay: Competitive displacement of [3H]E2730 binding with ASMs; conditions: 20 nM [3H]E2730; unlabeled E2730 0.1-10 μM; ASMs at 10-3000 μM
T2 construct: Synaptosomal membranes were prepared using the whole brain without cerebellum, brainstem, or olfactory bulb; from tissue; host or cells: rat whole brain without cerebellum, brainstem or olfactory bulb; synaptosomal membranes
Experimental: Unlabeled E2730 (0.1–10 μM) was also assessed to confirm a representative displacement. Non‐specific binding was defined as the residual binding observed in the presence of 1 mM unlabeled E2730. Radioactivity of the synaptosome‐bound radioligand was measured in the same way as described above.

[3] = target: T2, rat brain synaptosomal membranes; assay: Saturation binding of [3H]E2730 in rat brain synaptosomal membranes; conditions: [3H]E2730, Scatchard plot
Experimental: Synaptosomal membranes were prepared using the whole brain without cerebellum, brainstem, or olfactory bulb from Sprague Dawley rats (male, 7 weeks old) or human cerebral cortex based on Fuks et al.[10] and Hanada et al.[11] Synaptosomal membranes (0.4 mg protein/tube) were incubated with 9.8–5000 nM [^3H]E2730 for 120 minutes at 4°C. Non‐specific binding was defined as the residual binding observed in the presence of 1 mM unlabeled E2730. […] The filters were washed three times with ice‐cold 50 mM Tris–HCl buffer (pH 7.4) and incubated overnight in a scintillator (PerkinElmer), then the radioactivity was measured by a liquid scintillation counter (PerkinElmer).

hNav1.2 = target: T3, hNav1.2 (Homo sapiens, UniProt Q99250); assay: Veratridine-induced hNav1.2 activation in CHO cells, membrane potential assay; type: cell-based; conditions: up to 100 μM, veratridine 50 μM
T3 construct: expressed in transfected cells; host or cells: CHO
T3 sequence (Q99250 whole entry): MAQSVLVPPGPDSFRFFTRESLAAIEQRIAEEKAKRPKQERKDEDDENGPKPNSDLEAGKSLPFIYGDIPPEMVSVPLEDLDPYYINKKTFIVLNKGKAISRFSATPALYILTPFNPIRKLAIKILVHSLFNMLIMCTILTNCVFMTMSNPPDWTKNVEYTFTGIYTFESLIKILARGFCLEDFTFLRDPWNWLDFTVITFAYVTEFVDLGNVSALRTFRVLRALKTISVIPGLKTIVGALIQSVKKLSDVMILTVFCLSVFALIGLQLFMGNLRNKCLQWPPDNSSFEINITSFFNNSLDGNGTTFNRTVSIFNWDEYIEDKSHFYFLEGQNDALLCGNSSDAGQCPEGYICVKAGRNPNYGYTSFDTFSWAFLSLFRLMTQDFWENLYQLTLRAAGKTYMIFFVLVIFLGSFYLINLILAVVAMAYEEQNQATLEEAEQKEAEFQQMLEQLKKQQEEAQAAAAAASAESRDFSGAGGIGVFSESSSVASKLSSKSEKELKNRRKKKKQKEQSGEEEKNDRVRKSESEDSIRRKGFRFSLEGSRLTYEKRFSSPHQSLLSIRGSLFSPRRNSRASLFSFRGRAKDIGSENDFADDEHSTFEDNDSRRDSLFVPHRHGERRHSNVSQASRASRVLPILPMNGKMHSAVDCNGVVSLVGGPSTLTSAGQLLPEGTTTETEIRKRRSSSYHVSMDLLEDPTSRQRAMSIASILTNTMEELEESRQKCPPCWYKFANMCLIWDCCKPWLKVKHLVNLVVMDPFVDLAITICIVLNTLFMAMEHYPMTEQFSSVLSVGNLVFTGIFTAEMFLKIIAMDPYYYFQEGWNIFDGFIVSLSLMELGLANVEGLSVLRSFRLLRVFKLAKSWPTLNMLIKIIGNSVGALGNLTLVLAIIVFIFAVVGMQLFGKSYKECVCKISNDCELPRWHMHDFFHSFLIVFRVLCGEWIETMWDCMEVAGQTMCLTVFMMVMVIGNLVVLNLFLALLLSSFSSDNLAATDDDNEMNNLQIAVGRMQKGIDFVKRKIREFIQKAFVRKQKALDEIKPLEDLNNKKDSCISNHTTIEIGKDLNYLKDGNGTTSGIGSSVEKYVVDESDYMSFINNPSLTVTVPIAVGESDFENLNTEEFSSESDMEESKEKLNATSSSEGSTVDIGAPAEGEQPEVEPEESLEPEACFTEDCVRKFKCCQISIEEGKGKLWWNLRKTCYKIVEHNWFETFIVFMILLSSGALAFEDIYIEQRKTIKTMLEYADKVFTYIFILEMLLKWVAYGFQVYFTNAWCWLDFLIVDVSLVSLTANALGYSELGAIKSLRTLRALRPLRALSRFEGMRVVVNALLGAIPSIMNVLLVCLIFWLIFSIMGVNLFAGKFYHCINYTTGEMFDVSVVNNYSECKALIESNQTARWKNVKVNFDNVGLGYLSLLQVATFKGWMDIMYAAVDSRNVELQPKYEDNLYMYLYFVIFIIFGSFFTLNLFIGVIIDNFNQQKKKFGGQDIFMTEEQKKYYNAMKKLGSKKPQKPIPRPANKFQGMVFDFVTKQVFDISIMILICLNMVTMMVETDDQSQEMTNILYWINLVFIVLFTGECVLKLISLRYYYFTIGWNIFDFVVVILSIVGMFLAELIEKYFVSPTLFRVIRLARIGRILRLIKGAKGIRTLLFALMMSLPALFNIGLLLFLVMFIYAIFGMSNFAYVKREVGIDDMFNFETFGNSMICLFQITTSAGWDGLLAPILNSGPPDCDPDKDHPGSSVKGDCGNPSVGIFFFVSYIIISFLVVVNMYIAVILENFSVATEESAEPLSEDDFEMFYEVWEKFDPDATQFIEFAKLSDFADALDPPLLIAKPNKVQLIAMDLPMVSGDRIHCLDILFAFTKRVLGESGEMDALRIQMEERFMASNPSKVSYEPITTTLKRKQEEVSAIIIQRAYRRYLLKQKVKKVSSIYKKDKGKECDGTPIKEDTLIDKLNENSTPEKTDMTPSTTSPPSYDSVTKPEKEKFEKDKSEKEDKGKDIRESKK
Experimental: Data represent the mean ± SEM of three independent experiments. Effects of E2730 and desipramine (Sigma-Aldrich, MO) on hNav1.2 activity were evaluated in CHO cells stably expressing hNav1.2 using a fluorescent-based membrane potential assay (Molecular Devices, CA). Activation of hNav1.2 was induced by veratridine (50 μM) and the change of fluorescence (excitation wavelength, 480 nm; emission wavelength, 540 nm) was recorded using Fluorescence Drug Screening System 6000 (Hamamatsu Photonics, Japan).

[4] = system: brain synaptosomal membranes of GAT1-deficient mice; assay: [3H]E2730 binding in GAT1-deficient mouse brain; conditions: 200 nM [3H]E2730
Experimental: Synaptosomal membrane extract was prepared from homozygous γ‐aminobutyric acid (GABA) transporter 1 (GAT1) KO (Homo), heterozygous GAT1 KO (Hetero), and the littermate wild‐type (WT) mice (male, 10 weeks old) using the same approach as described above. Synaptosomal membrane extract (0.4 mg protein/tube) was incubated with 200 nM [^3H]E2730 for 120 minutes at 4°C. Non‐specific binding was defined as the residual binding observed in the presence of 1 mM unlabeled E2730. The radioactivity of the synaptosome‐bound radioligand was measured in the same way as described above.

corneal kindling mice = assay: Corneal kindling in mice; type: in vivo; conditions: Mus musculus; oral, 1 hour before electrical stimulation; read-out: ED50 (95% CI) in corneal kindling mice
Source text: A corneal kindling mouse model was developed following the method described by Potschka and Löscher.[7] Male C57BL/6N mice (5 weeks old; Charles River Laboratories Japan, Japan) were stimulated using corneal electrodes (4 mA, 50 Hz, 3‐second duration each) twice daily for 10 consecutive days, and stimulated mice were observed and rated based on the Racine's scale (0, no seizure; 1, mild facial clonus and eye blinking; 2, severe facial clonus, head nodding, or chewing; 3, unilateral or alternating forelimb clonus; 4, bilateral forelimb clonus and rearing; 5, bilateral forelimb clonus with rearing and falling). Mice with scores ≥3 were deemed epileptic, whereas mice with scores <3 were deemed non‐epileptic. Mice rated 4 or 5 (i.e. fully kindled mice) were used for drug evaluation.

In the case of `NS(=O)(=O)N[C@H]1c2c(F)cc(F)cc2CC1(F)F` [E2730], the “effect on GABA-induced current” value [1] is reported as “did not directly affect”, the post-ADT/pre-ADT ratio (amygdala kindling rats; E2730 10 mg/kg oral, 1 hour after administration) is reported as 129% and the post-ADT/pre-ADT ratio (amygdala kindling rats; E2730 20 mg/kg oral) is reported as 159%. For the same compound, the post-ADT/pre-ADT ratio (amygdala kindling rats; E2730 50 mg/kg oral) was 191%, the “Minimum effective dose, amygdala kindling (rat)” value (amygdala kindling rats; oral, footnote a: minimum effective dose) was 10 mg/kg and the “displacement of [3H]E2730 binding” value [2] was “displaced the radiolabeled [^3H]E2730 in a concentration‐dependent manner”. For the same compound, the Bmax [3] was 3419 fmol/mg protein, the Kd [3] was 553 nM and the “effect on hNav1.2 activation” value (hNav1.2) was “did not inhibit; also recorded: did not directly affect”. The “proportion of bound [3H]E2730 relative to WT mice” value ([4]; heterozygous GAT1 KO (Hetero) mice) was 54.0%, the “proportion of bound [3H]E2730 relative to WT mice” value ([4]; homozygous GAT1 KO (Homo) mice) was 8.0% and the ED50 (corneal kindling mice) was 7.9 mg/kg.
